According to paper PMC6685790 (Nature structural & molecular biology, 2008):
Numbering of substitutions follows the chain as printed.

Columns and labels:
Assay in all cases: Whole-cell recording of substituted GlyR in HEK cells
Type in all cases: cell-based
GlyR α1^L98A = biological target: T1, GlyR α1^L98A (Homo sapiens, UniProt P23415, L126A); details: α1^L98A
T1 sequence (P23415 29-457 L126A): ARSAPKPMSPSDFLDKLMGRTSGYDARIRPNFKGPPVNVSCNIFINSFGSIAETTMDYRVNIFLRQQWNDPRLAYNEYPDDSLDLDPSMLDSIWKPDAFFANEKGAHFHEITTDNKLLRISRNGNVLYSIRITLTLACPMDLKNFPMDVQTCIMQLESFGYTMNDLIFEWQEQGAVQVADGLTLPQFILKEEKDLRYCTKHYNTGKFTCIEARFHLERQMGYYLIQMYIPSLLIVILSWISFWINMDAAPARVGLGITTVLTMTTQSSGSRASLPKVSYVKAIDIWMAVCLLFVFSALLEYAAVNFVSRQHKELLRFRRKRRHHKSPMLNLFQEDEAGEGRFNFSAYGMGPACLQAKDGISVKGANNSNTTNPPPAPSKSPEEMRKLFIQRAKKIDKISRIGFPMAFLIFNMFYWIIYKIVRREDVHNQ

GlyR α1^I111A = biological target: T2, GlyR α1^I111A (Homo sapiens, UniProt P23415, I139A)
T2 sequence (P23415 29-457 I139A): T1 sequence (P23415 29-457 L126A) with A98L, I111A

GlyR α1^I132A = biological target: T3, GlyR α1^I132A (Homo sapiens, UniProt P23415, I160A)
T3 sequence (P23415 29-457 I160A): T1 sequence (P23415 29-457 L126A) with A98L, I132A

GlyR α1^I62A = biological target: T4, GlyR α1^I62A (Homo sapiens, UniProt P23415, I90A)
T4 sequence (P23415 29-457 I90A): T1 sequence (P23415 29-457 L126A) with I62A, A98L

GlyR α1^L117A = biological target: T5, GlyR α1^L117A (Homo sapiens, UniProt P23415, L145A)
T5 sequence (P23415 29-457 L145A): T1 sequence (P23415 29-457 L126A) with A98L, L117A

GlyR α1^L118A = biological target: T6, GlyR α1^L118A (Homo sapiens, UniProt P23415, L146A)
T6 sequence (P23415 29-457 L146A): T1 sequence (P23415 29-457 L126A) with A98L, L118A

[1] = read-out: Zn^2+ Activation EC50, direct activation without glycine
[2] = read-out: Zn^2+ Inhibition IC50, modulation of EC50 glycine currents
[3] = maximal Zn^2+ response as percentage of maximal glycine response in same cell
[4] = direct activation without glycine

SMILES: [Zn+2] [Zn^2+]
- EC50 (GlyR α1^L98A; [1]): 0.26 ± 0.08 µM
- IC50 (GlyR α1^L98A; [2]): > 1000 µM
- Zn^2+ Activation nH (GlyR α1^L98A; Hill slope): 1.1 ± 0.2
- Zn^2+ Activation Relative efficacy (% Gly Imax) (GlyR α1^L98A; [3]): 49 ± 5 % Gly Imax
- Zn^2+ Activation nH (GlyR α1^I111A; Hill slope): 0.7 ± 0.2
- Zn^2+ Activation Relative efficacy (% Gly Imax) (GlyR α1^I111A; [3]): 83 ± 3 % Gly Imax
- EC50 (GlyR α1^I111A; [1]): 470 ± 130 µM
- IC50 (GlyR α1^I111A; [2]): > 1000 µM
- Zn^2+ Activation nH (GlyR α1^I132A; Hill slope): 1.2 ± 0.1
- Zn^2+ Activation Relative efficacy (% Gly Imax) (GlyR α1^I132A; [3]): 72 ± 5 % Gly Imax
- EC50 (GlyR α1^I132A; [1]): 140 ± 30 µM
- IC50 (GlyR α1^I132A; [2]): > 1000 µM
- Zn^2+ Activation Relative efficacy (% Gly Imax) (GlyR α1^I62A; maximal activation with 1 mM Zn^2+, as percentage of maximal glycine response in same cell): 3 ± 1 % Gly Imax
- EC50 (GlyR α1^I62A; [1]): > 1000 µM
- IC50 (GlyR α1^I62A; [2]): > 1000 µM
- Zn^2+ Activation EC50 (GlyR α1^L117A; [4]): None
- IC50 (GlyR α1^L117A; [2]): 13.3 ± 3.3 µM
- Zn^2+ Activation EC50 (GlyR α1^L118A; [4]): None
- IC50 (GlyR α1^L118A; [2]): 10.3 ± 0.36 µM

SMILES: NCC(=O)O [Glycine, glycine]
- Glycine Imax (GlyR α1^L98A): 6.4 ± 0.5 nA
- Glycine nH (GlyR α1^L98A; Hill slope): 1.9 ± 0.3
- Glycine Imax (GlyR α1^I111A): 4.6 ± 0.8 nA
- Glycine nH (GlyR α1^I111A; Hill slope): 1.3 ± 0.2
- Glycine Imax (GlyR α1^I132A): 6.1 ± 0.7 nA
- Glycine nH (GlyR α1^I132A; Hill slope): 2.7 ± 0.4
- Glycine Imax (GlyR α1^I62A): 7.6 ± 0.7 nA
- Glycine nH (GlyR α1^I62A; Hill slope): 2.5 ± 0.1
- Glycine Imax (GlyR α1^L117A): 4.4 ± 0.7 nA
- Glycine nH (GlyR α1^L117A; Hill slope): 1.67 ± 0.1
- Glycine Imax (GlyR α1^L118A): 6.3 ± 0.7 nA
- Glycine nH (GlyR α1^L118A; Hill slope): 3.00 ± 0.2
